Experimental data taken from patent publication US20050090474A1, “Methods and compositions for enhancing and inhibiting fertilization” (priority 2002, published 2005).
Entries after “also recorded” stand apart in the source; their conditions may differ.

Key:
Format in all cases: cell-based
[1] = system: capacitated human spermatozoa; assay: Drug effect on acrosome reaction; design: Acrosome reaction: unit not given here; conditions: for Acrosome reaction (AR) stimulated by inducer: inducer alone, stimulation over control; for AR stimulated by A23187 in the presence of inhibitor / stimulated AR observed in the presence of progesterone and hZP-3, effect of inhibitor: Table 1; for stimulated AR observed in the presence of progesterone and hZP-3, effect of inhibitor: progesterone- and hZP-3-stimulated AR
Experimental: (§1) Sperm capacitation—Isolated sperm samples were incubated for 3 hours at 36° C. in HAM's F-10 medium supplemented with 0.3% BSA as in Rotem et al., 1990a, b
Drug effect on acrosome reaction—To test the involvement of MAPK cascade proteins on acrosome reaction the following drugs were added to the incubation medium: Progesterone (Sigma-Aldrich Corp., St Louis, Mo., USA), hZP-3 (human zona pellucida protein 3, obtained from P. Salling, N.C., USA) diluted in MOCK (F-10 medium containing 0.1% DMSO, Biological Industries, Beth Ha'Emek, Israel), A23187 (calcium ionophore, Calbiochem, La Jolla, Calif., USA), PD98059 (Biomol, Plymouth Meeting, Pa., USA), SB203580 (Biomol, Plymouth Meeting, Pa., USA) and GF109203X (PKC inhibitor, Calbiochem, La Jolla, Calif., USA). Acrosome reaction was determined as described elsewhere (Rotem et al., 1992).

human spermatozoa = assay: Drug effect on sperm motility (progressive flagellar motility)
Experimental: FIG. 8 is a graphic representation of the effect of progesterone and MAPK inhibitors on human spermatozoa motility. Human spermatozoa (5×10^7/ml) were incubated with PD98059 (ERK inhibitor, at 50 μM, FIG. 8, marked with “PD”) and SB203580 (p38 inhibitor, at 50 μM, FIG. 8, marked with “SB”), in the presence or absence of progesterone (at 5 μg/ml, FIG. 8, marked with “P”) for the indicated time. Percent motile spermatozoa was determined in aliquots of 10 μl. Results are expressed as mean ±SEM of three experiments.
Isolation of human sperm samples—Human semen were obtained upon informed consent from healthy donors having normal sperm density, motility and morphology (according to the World Health Organization (WHO) guidelines of 1992) following 3 days of sexual abstinence. Sperm samples were collected into sterile 50 ml tubes and semen was liquefied for 1 hour at 36° C., washed twice with HAM's F-10 medium (Biological Industries, Beth Ha'Emek, Israel) supplemented with 0.3% bovine serum albumin (BSA) and separated from non-sperm cells by a Percoll gradient centrifugation (Sigma-Aldrich Corp., St Louis, Mo., USA) essentially as described elsewhere (Rotem et al., 1990a, b). The resultant sperm sample contained approx. 50×10^6 sperm/ml.
as §1
Drug effect on sperm motility—To test the effect of MAPK inhibitors and progesterone on sperm motility the following drugs were added to the incubation medium: PD98059 (ERK inhibitor, Biomol, Plymouth Meeting, Pa., USA), SB203580 (p38 inhibitor, Biomol, Plymouth Meeting, Pa., USA) and progesterone (Sigma-Aldrich Corp., St Louis, Mo., USA). Progressive flagellar motility was determined as described elsewhere (Rotem et al., 1990a, b).

ERK 1 and ERK 2 = assay: Determination of phosphorylated ERK by in-gel kinase assay; conditions: human spermatozoa stimulated by progesterone 5 μg/ml, bands of 44 and 42 kDa, data not shown
Experimental: Determination of phosphorylated ERK by in-gel kinase assay—To further substantiate its role in spermatozoa maturation the phosphorylation state of ERK was determined by in-gel kinase assay as described elsewhere (Naor et al., 1999). […] Mitogen-activated protein (MAP) kinase pathways: regulation and physiological functions. Endocr. Rev. 22: 153-183] are active in human spermatozoa.

ERK = assay: Western blot with antibody against phosphorylated (active) ERK; conditions: capacitated human spermatozoa, 0.2 M vanadate, 60 min, FIG. 4a
Experimental: (§2) FIGS. 4a-f are autoradiograms depicting expression and activity of MAPK proteins in human spermatozoa. LβT2 cells were treated for 60 min with 50 ng/ml 12-O-Tetradecanoylphorbol-13-acetate (TPA, FIGS. 4a-f, lane 1) and capacitated human spermatozoa were treated for 60 min with 0.2 M vanadate (FIGS. 4a-f, lane 3) or were remained untreated (FIGS. 4a-f, lane 2). Cell lysates were subsequently prepared and subjected to Western blot analysis with antibodies directed at the active, phosphorylated form of ERK, p38 and JNK (FIGS. 4a, 4c and 4e, respectively), or with antibodies directed at the unphosphorylated form of ERK, p38 and JNK (FIGS. 4b, 4d and 4f, respectively).
(§3) Western blot analysis—Western blot analysis was effected with antibodies directed at ERK, JNK and p38 proteins as well as with antibodies directed at the phosphorylated forms of these MAPK proteins (Sigma Rehovot, Israel). The assay was performed as previously described (Yung et al., 1997).
(§4) Molecular identification of MAPK cascade proteins in human spermatozoa—Capacitated human spermatozoa cell lysate were generated as described and subjected to Western blot analysis using MAPK antibodies specific to either the phosphorylated or the general forms of ERK, p38 and INK proteins. […]

p38 = assay: Western blot with antibody against phosphorylated (active) p38; conditions: capacitated human spermatozoa, 0.2 M vanadate, 60 min, FIG. 4c
Experimental: as §2, §3, §4

## CNc1ccc2oc(C[C@H]3O[C@@]4(CC[C@H]3C)O[C@H]([C@H](C)C(=O)c3ccc[nH]3)[C@H](C)C[C@H]4C)nc2c1C(=O)O [A23187]
[1]; A23187 10 μM, no inhibitor (Control)
  Acrosome reaction: 51
[1]
  Acrosome reaction (AR) stimulated by inducer: 140%

## CN(C)CCCn1cc(C2=C(c3c[nH]c4ccccc34)C(=O)NC2=O)c2ccccc21 [GF109203X]
[1]
  AR stimulated by A23187 in the presence of inhibitor: persisted
  stimulated AR observed in the presence of progesterone and hZP-3, effect of inhibitor: markedly inhibited
[1]; GF109203X 100 nM, no inducer (Control)
  Acrosome reaction: 19
[1]; GF109203X 100 nM, with A23187 10 μM
  Acrosome reaction: 48
[1]; GF109203X 100 nM, with MOCK
  Acrosome reaction: 28
[1]; GF109203X 100 nM, with hZP3 50 ng/ml
  Acrosome reaction: 18
[1]; GF109203X 100 nM, with progesterone 5 μg/ml
  Acrosome reaction: 15

## COc1cccc(-c2cc(=O)c3ccccc3o2)c1N [PD98059]
Human spermatozoa; human spermatozoa, 50 μM PD98059, transient, FIG. 8
  progressive flagellar motility decreased to: 50%
[1]
  AR stimulated by A23187 in the presence of inhibitor: persisted
  stimulated AR observed in the presence of progesterone and hZP-3, effect of inhibitor: markedly inhibited
[1]; PD98059 5 μM, no inducer (Control)
  Acrosome reaction: 17
[1]; PD98059 5 μM, with A23187 10 μM
  Acrosome reaction: 50
[1]; PD98059 5 μM, with MOCK
  Acrosome reaction: 25
[1]; PD98059 5 μM, with hZP3 50 ng/ml
  Acrosome reaction: 29
[1]; PD98059 5 μM, with progesterone 5 μg/ml
  Acrosome reaction: 18

## CC(=O)[C@H]1CC[C@H]2[C@@H]3CCC4=CC(=O)CC[C@]4(C)[C@H]3CC[C@]12C [Progesterone, progesterone]
Human spermatozoa; human spermatozoa, 5 μg/ml progesterone, FIG. 8
  effect on progressive flagellar motility: no effect
[1]
  Acrosome reaction (AR) stimulated by inducer: 50%
[1]; progesterone 5 μg/ml, no inhibitor (Control)
  Acrosome reaction: 31
ERK 1 and ERK 2
  phosphorylation state of ERK (in-gel kinase assay): exhibited two phosphorylated bands

## [O]=[V]([O-])([O-])[O-] [vanadate]
ERK
  phosphorylated ERK (Western blot signal): could be detected only following treatment; also recorded: increased band intensity
p38
  phosphorylated form of p38 (Western blot signal): regardless of vanadate treatment

## C[S+]([O-])c1ccc(-c2nc(-c3ccncc3)c(-c3ccc(F)cc3)[nH]2)cc1 (centres unmarked) [SB203580]
Human spermatozoa; 50 μM SB203580 co-introduced with 5 μg/ml progesterone, FIG. 8 SB+P
  SB203580-induced increase in progressive flagellar motility: completely abolished
Human spermatozoa; SB203580 50 μM in the presence of progesterone 5 μg/ml
  sperm motility (percent motile spermatozoa), FIG. 8 legend: normal motility
Human spermatozoa; human spermatozoa 5×10^7/ml, SB203580 50 μM
  sperm motility (percent motile spermatozoa), FIG. 8 legend: significant increase
Human spermatozoa; human spermatozoa, 50 μM SB203580, FIG. 8
  increase in progressive flagellar motility: over 120%
[1]
  AR stimulated by A23187 in the presence of inhibitor: persisted
  stimulated AR observed in the presence of progesterone and hZP-3, effect of inhibitor: markedly inhibited
[1]; MOCK-stimulated AR
  non-specific increase in AR stimulated by MOCK, effect of inhibitor: inhibited
[1]; SB203580 20 μM, no inducer (Control)
  Acrosome reaction: 17
[1]; SB203580 20 μM, with A23187 10 μM
  Acrosome reaction: 49
[1]; SB203580 20 μM, with MOCK
  Acrosome reaction: 15
[1]; SB203580 20 μM, with hZP3 50 ng/ml
  Acrosome reaction: 28
[1]; SB203580 20 μM, with progesterone 5 μg/ml
  Acrosome reaction: 11
